Read-outs that look alike come from different tables or passages of the source.
Key:
hTCPTP = target: T1, hTCPTP (Homo sapiens, UniProt P17706); experiment: Selectivity assay against TCPTP; format: biochemical; details: for IC50: concentrations tested 1 to 400 μM, read-out: TCPTP IC50 ± SD
T1 construct: His tag (vector pET-28a(+)-TEV, with TEV site); made in house; host or cells: E. coli BL21 (DE3)
T1 sequence (P17706 1-415): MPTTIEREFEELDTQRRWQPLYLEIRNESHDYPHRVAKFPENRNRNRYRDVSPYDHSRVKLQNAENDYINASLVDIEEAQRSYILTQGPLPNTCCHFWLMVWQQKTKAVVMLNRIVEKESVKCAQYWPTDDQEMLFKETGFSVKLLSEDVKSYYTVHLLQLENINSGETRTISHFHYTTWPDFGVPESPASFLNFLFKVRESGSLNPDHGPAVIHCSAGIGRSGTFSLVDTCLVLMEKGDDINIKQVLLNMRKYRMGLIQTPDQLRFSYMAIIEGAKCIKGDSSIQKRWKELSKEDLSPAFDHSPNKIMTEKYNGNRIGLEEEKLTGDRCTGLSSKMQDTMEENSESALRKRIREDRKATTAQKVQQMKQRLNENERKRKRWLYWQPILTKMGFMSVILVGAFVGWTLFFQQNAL
Protocol: A spectrocolorimetric method previously described[3] was employed to test the inhibitory effect of the new compounds against PTP1B. […] Enzyme solutions containing pNPP and inhibitors were incubated at 37 °C for 15 min. […] The percentage of inhibition was plotted as a function of the inhibitor concentrations.
Similarly to the IC50, the assays to determine the selectivity were carried out in the same experimental conditions using hPTP1B1–400 and hTCPTP.
The expression vector pET-28a(+)-TEV was obtained from Invitrogen (Waltham, MA, USA). E. coli strain DH5α and BL21 (DE3) were purchased from Invitrogen (Waltham, MA, USA). The gene PTPN2 was subcloned into the expression vector pET-28a (+)-TEV, using the NDEI and BAMHI cloning sites. The construction pET-28A(+)-TEV–PTPN2 was transformed into E. coli strain BL21 (DE3). Transformed E. coli cells were grown in LB media containing kanamycin ([…]) at 37 °C for 6 h with continuous agitation (250 rpm). Once the cultures reached an A600 of 0.6 (about 6 h), protein expression was induced with 1 mM IPTG at 37 °C, 250 rpm for 8 h. After centrifuge (4500 rpm, 15 min, 4 °C), the grown and IPTG-induced cultures and bacterial pellet were resuspended in Tris buffer (pH 6.8) and lysed by sonication (10 cycles, intervals of 30 s) in an ice–water bath with an ultrasonic processor (Cole-Parmer, Vernon Hills, IL, USA). […] The column was equilibrated with three column volumes of 50 mM Tris, pH 6.8. His-tagged protein was eluted with Tris 50 mM and 300 mM imidazole with one column volume. […] Fractions containing hTCPTP were dialyzed in 50 mM Tris, pH 6.8. The purity of the protein was followed by SDS-polyacrylamide gel electrophoresis (SDS-PAGE) using a 12% resolving gel.

PTP1B = details: cited from earlier work
TCPTP = details: cited from earlier work
hPTP1B1–400 [1] = target: T2, hPTP1B1–400 (Homo sapiens, UniProt P18031); experiment: Enzyme kinetics (Lineweaver–Burk, varying pNPP); details: for inhibition mechanism: hPTP1B1–400, best fit of inhibition models; for Km / Vmax: hPTP1B1–400, pNPP 0.1–0.5 mM
T2 sequence (P18031 1-400): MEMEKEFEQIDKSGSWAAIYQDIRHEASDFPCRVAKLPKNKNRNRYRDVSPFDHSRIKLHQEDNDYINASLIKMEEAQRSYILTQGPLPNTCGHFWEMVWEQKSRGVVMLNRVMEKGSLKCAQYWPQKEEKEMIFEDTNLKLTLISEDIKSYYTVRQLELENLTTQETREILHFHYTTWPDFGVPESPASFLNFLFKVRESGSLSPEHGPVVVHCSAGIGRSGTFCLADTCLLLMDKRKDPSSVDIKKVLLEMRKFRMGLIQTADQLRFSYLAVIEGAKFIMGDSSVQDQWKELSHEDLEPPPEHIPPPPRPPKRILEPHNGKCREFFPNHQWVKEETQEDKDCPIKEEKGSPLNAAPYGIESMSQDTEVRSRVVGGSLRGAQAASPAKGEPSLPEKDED

hPTP1B1–400 [2] = target: T2, hPTP1B1–400; experiment: PTP1B inhibition assay (pNPP, spectrocolorimetric), long form; details: for fold higher potency for hPTP1B1–400 over hPTP1B1–285: ratio of IC50 values, long vs short form
hPTP1B1–285 = target: T3, hPTP1B1–285 (Homo sapiens, UniProt P18031); experiment: PTP1B inhibition assay (pNPP, spectrocolorimetric), short form
T3 sequence (P18031 1-285): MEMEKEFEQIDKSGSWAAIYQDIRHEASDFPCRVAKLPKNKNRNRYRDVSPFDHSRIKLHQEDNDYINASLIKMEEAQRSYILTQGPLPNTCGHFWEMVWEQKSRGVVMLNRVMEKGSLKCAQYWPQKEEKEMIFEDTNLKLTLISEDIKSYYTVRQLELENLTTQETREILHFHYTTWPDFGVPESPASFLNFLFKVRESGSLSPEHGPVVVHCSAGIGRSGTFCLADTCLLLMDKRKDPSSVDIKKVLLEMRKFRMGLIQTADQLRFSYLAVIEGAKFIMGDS

hPTP1B1–400 [3] = target: T2, hPTP1B1–400; design: containing purified hPTP1B 66 nM (hPTP1B1–285 and hPTP1B1–400) and pNPP 0.5 mM; made in house; method as in PMID 36997321; details: cited from earlier work
[4] = IC50 ± SD hPTP1B1–400, hPTP1B 66 nM, pNPP 0.5 mM, 37 °C, 15 min
[5] = PTP1B IC50 ± SD, selectivity assay, hPTP1B1–400

SMILES	IC50 (hTCPTP)	selectivity (PTP1B over TCPTP) (hTCPTP; hPTP1B1–400 vs hTCPTP)	Ki (hPTP1B1–400 [1])	inhibition mechanism (hPTP1B1–400 [1])	Km (hPTP1B1–400 [1])	Vmax (hPTP1B1–400 [1])	IC50 (hPTP1B1–285)	IC50 (hPTP1B1–400 [2]; [4])	IC50 (hPTP1B1–400 [2]; [5])	other results
C[C@H](CCC(=O)O)[C@H]1CC[C@H]2[C@@H]3CC[C@@H]4C[C@H](O)CC[C@]4(C)[C@H]3CC[C@]12C [LA, lithocholic acid, reference compound]	> 400 µM	only inhibited PTP1B but not TCPTP and Yes	5.5 ± 1.1 µM	uncompetitive inhibitor	1200 ± 300 µM	1.7 ± 0.3 mM/min	22.2 ± 0.9 µM			IC50 (PTP1B; read-out: IC50 (PTP1B)): 12.5 µM; fold selectivity for PTP1B over TCPTP (TCPTP): 2 fold; IC50 (hPTP1B1–400 [2]): 14 ± 0.9 µM; fold higher potency for hPTP1B1–400 over hPTP1B1–285 (hPTP1B1–400 [2]): 1.5 fold
Cc1ccc(C(=O)Nc2ccc(S(=O)(=O)O)c3cc(S(=O)(=O)O)cc(S(=O)(=O)O)c23)cc1NC(=O)c1cccc(NC(=O)Nc2cccc(C(=O)Nc3cc(C(=O)Nc4ccc(S(=O)(=O)O)c5cc(S(=O)(=O)O)cc(S(=O)(=O)O)c45)ccc3C)c2)c1 [SUR, suramin]										Km (hPTP1B1–400 [3]): 290 ± 20 µM; Vmax (hPTP1B1–400 [3]): 0.64 ± 0.02 mM/min; inhibition mechanism (hPTP1B1–400 [3]): competitive inhibition
O=C(O)C(=O)Nc1sc2c(c1C(=O)O)CCNC2 [TCS401, reference compound]	6.7 ± 0.6 µM						12.4 ± 1 µM	8.1 ± 0.9 µM	8.15 ± 0.91 µM	Ki (PTP1B): 4.7 µM
CC(C)[C@@H](CC[C@@H](C)[C@H]1CC[C@H]2[C@@H]3[C@H](O)C[C@H]4C[C@@H](NCCCNCCCCNCCCN)CC[C@]4(C)[C@H]3CC[C@]12C)OS(=O)(=O)O [Trodusquemine]										inhibition mechanism (PTP1B): […]; IC50 (PTP1B; read-out: IC50 against PTP1B): […]; IC50 (TCPTP; read-out: IC50 against TCPTP): 224 µM
C[C@H]1[C@H](C)CC[C@]2(C(=O)O)CC[C@]3(C)C(=CC[C@@H]4[C@@]5(C)CC[C@H](O)C(C)(C)[C@@H]5CC[C@]43C)[C@H]12 [UA, ursolic acid]	> 400 µM									Vmax (hPTP1B1–400 [3]): 0.63 ± 0.08 mM/min; inhibition mechanism (hPTP1B1–400 [3]): mixed inhibition
C[C@H](CCC(=O)O)C1CCC2C3CC[C@@H]4C[C@](O)(CNCc5ccc(C(F)(F)F)cc5)CC[C@]4(C)C3CC[C@@]21C.Cl (stereo partly drawn) [compound 6n, 1-((3S,5R,10S,13R)-17-((R)-4-carboxybutan-2-yl)-3-hydroxy-10,13-dimethylhexadecahydro-1H-cyclopenta[a]phenanthren-3-yl)-N-(4-(trifluoromethyl)benzyl)methanaminium Chloride]	> 400 µM	Yes	3.4 ± 0.3 µM	uncompetitive inhibition	520 ± 70 µM	0.73 ± 0.06 mM/min	16.3 ± 0.9 µM	5.3 ± 0.2 µM	5.3 ± 0.2 µM	fold selectivity for PTP1B over TCPTP (hTCPTP; hPTP1B1–400 vs hTCPTP): around 75 fold; fold more potent than LA (hPTP1B1–400 [2]; hPTP1B1–400 IC50 compared with LA): 3 fold; fold higher potency for hPTP1B1–400 over hPTP1B1–285 (hPTP1B1–400 [2]): ~3 fold
C[C@H](CCC(=O)O)C1CCC2C3CC[C@@H]4C[C@](O)(CNCc5cc(C(F)(F)F)cc(C(F)(F)F)c5)CC[C@]4(C)C3CC[C@@]21C.Cl (stereo partly drawn) [compound 6o, N-(3,5-bis(trifluoromethyl)benzyl)-1-((3S,5R,10S,13R)-17-((R)-4-carboxybutan-2-yl)-3-hydroxy-10,13-dimethylhexadecahydro-1H-cyclopenta[a]phenanthren-3-yl)methanaminium Chloride]	> 400 µM	Yes	3.9 ± 0.7 µM	Uncompetitive	1900 ± 300 µM	2.7 ± 0.4 mM/min	43 ± 1.3 µM	11 ± 0.2 µM	11 ± 0.2 µM	
